Measured values as given in PubChem BioAssay AID256 (DTP/NCI, 2004).
“And” between values parts separate entries of the source, which are not always exact repeats. Identical values can stand only once. Inconclusive results and toxic doses are left out. The calls were made as follows: active = survival T/C of 150% or more; inactive = T/C below 125% in these data.

Tested on: CD2F1 mice, L1210 leukemia ip, survival T/C
Assay: NCI In Vivo Anticancer Drug Screen. Data for tumor model L1210 Leukemia (intraperitoneal) in CD2F1 (CDF1) mice
Details: higher = longer survival
Procedure, shortened: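 Vehicle-treated tumor-bearing mice served as controls (C) for compound-treated mice (T). Reported figure is T divided by C.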

[1] = endpoint: mean survival time, dose: 100.0 mg/kg/injection, schedule: Q01DX009 (ip), vehicle: saline with Tween-80
[2] = endpoint: mean survival time, dose: 200.0 mg/kg/injection, schedule: Q01DX009 (ip), vehicle: saline with Tween-80
[3] = endpoint: mean survival time, dose: 400.0 mg/kg/injection, schedule: Q01DX009 (ip), vehicle: saline with Tween-80
[4] = endpoint: mean survival time, dose: 100.0 mg/kg/injection, schedule: Q04DX003 (ip), vehicle: saline with Tween-80
[5] = endpoint: mean survival time, dose: 200.0 mg/kg/injection, schedule: Q04DX003 (ip), vehicle: saline with Tween-80
[6] = endpoint: mean survival time, dose: 400.0 mg/kg/injection, schedule: Q04DX003 (ip), vehicle: saline with Tween-80
[7] = endpoint: mean survival time, dose: 100.0 mg/kg/injection, schedule: Q01DX001 (ip), vehicle: saline with Tween-80
[8] = endpoint: mean survival time, dose: 200.0 mg/kg/injection, schedule: Q01DX001 (ip), vehicle: saline with Tween-80
[9] = endpoint: mean survival time, dose: 100.0 mg/kg/injection, schedule: Q04DX002 (ip), vehicle: saline with Tween-80
[10] = endpoint: mean survival time, dose: 200.0 mg/kg/injection, schedule: Q04DX002 (ip), vehicle: saline with Tween-80

Measured: T/C

OCC1OC(c2cnn(-c3ccccc3)n2)C(O)C1O (stereo not given)
inactive: endpoint: median survival time, dose: 12.5 mg/kg/injection, schedule: Q01DX005 (ip), vehicle: water 103 % of control | endpoint: median survival time, dose: 25.0 mg/kg/injection, schedule: Q01DX005 (ip), vehicle: water 103 % of control | endpoint: median survival time, dose: 50.0 mg/kg/injection, schedule: Q01DX005 (ip), vehicle: water 102 % of control | endpoint: median survival time, dose: 100.0 mg/kg/injection, schedule: Q01DX005 (ip), vehicle: water 104 % of control | endpoint: median survival time, dose: 200.0 mg/kg/injection, schedule: Q01DX005 (ip), vehicle: water 102 % of control

CCOC(=O)c1c(C)[nH]c(C)cc1=O
inactive: endpoint: mean survival time, dose: 100.0 mg/kg/injection, schedule: Q04DX002 (ip), vehicle: saline 103 % of control | endpoint: mean survival time, dose: 200.0 mg/kg/injection, schedule: Q04DX002 (ip), vehicle: saline 108 % of control

C=C(C)/C([O-])=N/[N+](C)(C)CC(O)CCCCCCCCCCCC (stereo not given)
inactive: endpoint: mean survival time, dose: 25.0 mg/kg/injection, schedule: Q01DX001 (ip), vehicle: saline 96 % of control and 97 % of control | endpoint: mean survival time, dose: 50.0 mg/kg/injection, schedule: Q01DX001 (ip), vehicle: saline 97 % of control and 100 % of control | endpoint: mean survival time, dose: 50.0 mg/kg/injection, schedule: Q01DX009 (ip), vehicle: saline with Tween-80 94 % of control | endpoint: mean survival time, dose: 100.0 mg/kg/injection, schedule: Q01DX001 (ip), vehicle: saline 96 % of control and 97 % of control | [1] 94 % of control | endpoint: mean survival time, dose: 200.0 mg/kg/injection, schedule: Q01DX001 (ip), vehicle: saline 93 % of control and 100 % of control | [2] 97 % of control

CCOC(=O)C(C(=O)OCC)N(Cc1ccccc1)Cc1ccccc1
inactive: endpoint: mean survival time, dose: 12.5 mg/kg/injection, schedule: Q01DX009 (ip), vehicle: other 93 % of control | endpoint: mean survival time, dose: 25.0 mg/kg/injection, schedule: Q01DX009 (ip), vehicle: other 93 % of control | endpoint: mean survival time, dose: 50.0 mg/kg/injection, schedule: Q01DX009 (ip), vehicle: other 96 % of control | endpoint: mean survival time, dose: 100.0 mg/kg/injection, schedule: Q01DX009 (ip), vehicle: other 93 % of control | endpoint: mean survival time, dose: 200.0 mg/kg/injection, schedule: Q01DX009 (ip), vehicle: other 90 % of control

C=C1C(=O)O[C@@H]2[C@H]1CC[C@H](C)[C@]1(O)CCC(=O)[C@@]21C
inactive: [1] 98 % of control | [2] 101 % of control | [3] 110 % of control

COc1cccc(C2Nc3cc(Cl)ccc3S2)c1O (stereo not given)
inactive: endpoint: mean survival time, dose: 75.0 mg/kg/injection, schedule: Q01DX009 (ip), vehicle: other 98 % of control | endpoint: mean survival time, dose: 150.0 mg/kg/injection, schedule: Q01DX009 (ip), vehicle: other 96 % of control | endpoint: mean survival time, dose: 300.0 mg/kg/injection, schedule: Q01DX009 (ip), vehicle: other 102 % of control

CC1(C)N=C(N)N=C(N)N1c1ccc(CCCCc2ccc(Cl)cc2Cl)cc1
inactive: endpoint: mean survival time, dose: 6.25 mg/kg/injection, schedule: Q01DX009 (ip), vehicle: saline with Tween-80 98 % of control | endpoint: mean survival time, dose: 6.25 mg/kg/injection, schedule: Q04DX003 (ip), vehicle: saline sonified 96 % of control | endpoint: mean survival time, dose: 12.5 mg/kg/injection, schedule: Q01DX009 (ip), vehicle: saline with Tween-80 102 % of control | endpoint: mean survival time, dose: 12.5 mg/kg/injection, schedule: Q04DX003 (ip), vehicle: saline sonified 98 % of control | endpoint: mean survival time, dose: 25.0 mg/kg/injection, schedule: Q04DX003 (ip), vehicle: saline sonified 100 % of control

O=C(O)c1nn2c(=O)[nH]c3ccccc3c2c1C(=O)O
inactive: endpoint: mean survival time, dose: 12.5 mg/kg/injection, schedule: Q04DX002 (ip), vehicle: saline with Tween-80 90 % of control | endpoint: mean survival time, dose: 25.0 mg/kg/injection, schedule: Q04DX002 (ip), vehicle: saline with Tween-80 94 % of control | endpoint: mean survival time, dose: 50.0 mg/kg/injection, schedule: Q04DX002 (ip), vehicle: saline with Tween-80 87 % of control

O=C1C=CC(=O)N1c1ccc(O)cc1
inactive: endpoint: mean survival time, dose: 1.25 mg/kg/injection, schedule: Q01DX009 (ip), vehicle: saline with Tween-80 100 % of control | endpoint: mean survival time, dose: 2.5 mg/kg/injection, schedule: Q01DX009 (ip), vehicle: saline with Tween-80 98 % of control | endpoint: mean survival time, dose: 5.0 mg/kg/injection, schedule: Q01DX009 (ip), vehicle: saline with Tween-80 93 % of control | endpoint: mean survival time, dose: 5.0 mg/kg/injection, schedule: Q04DX003 (ip), vehicle: saline with Tween-80 98 % of control

Cc1ccc(Nc2n[nH]c(=S)s2)cc1C
inactive: [4] 93 % of control | [5] 94 % of control | [6] 109 % of control

C=C(NC(C)=O)C(=O)O
inactive: [7] 96 % of control | [1] 103 % of control | [8] 97 % of control | [2] 89 % of control | endpoint: mean survival time, dose: 400.0 mg/kg/injection, schedule: Q01DX001 (ip), vehicle: saline with Tween-80 97 % of control

Clc1cc(CBr)c2ccccc2n1
inactive: [9] 101 % of control

C[N+](C)(C)C.[Cl][Fe]([Cl])([Cl])[Cl]
inactive: endpoint: mean survival time, dose: 3.13 mg/kg/injection, schedule: Q01DX009 (ip), vehicle: saline 94 % of control | endpoint: mean survival time, dose: 6.25 mg/kg/injection, schedule: Q01DX009 (ip), vehicle: saline 97 % of control | endpoint: mean survival time, dose: 12.5 mg/kg/injection, schedule: Q01DX009 (ip), vehicle: saline 91 % of control

COC(=O)C(OC)c1ccc2ccccc2c1 (stereo not given)
inactive: [9] 98 % of control | [10] 98 % of control | endpoint: mean survival time, dose: 400.0 mg/kg/injection, schedule: Q04DX002 (ip), vehicle: saline with Tween-80 102 % of control

COc1ccccc1OC(=O)CCl
inactive: [4] 111 % of control | [5] 101 % of control | [6] 88 % of control

O=c1[nH]cc(Cc2ccccc2)c(=S)[nH]1
inactive: endpoint: mean survival time, dose: 75.0 mg/kg/injection, schedule: Q01DX001 (ip), vehicle: saline with Tween-80 107 % of control | endpoint: mean survival time, dose: 150.0 mg/kg/injection, schedule: Q01DX001 (ip), vehicle: saline with Tween-80 102 % of control | endpoint: mean survival time, dose: 300.0 mg/kg/injection, schedule: Q01DX001 (ip), vehicle: saline with Tween-80 91 % of control

O=C1C=C(c2ccccc2)C/C1=C\c1ccccc1
inactive: [7] 87 % of control | [8] 87 % of control

CN(C)Cc1ncccc1O
inactive: endpoint: mean survival time, dose: 50.0 mg/kg/injection, schedule: Q01DX009 (ip), vehicle: suspension in saline 110 % of control | endpoint: mean survival time, dose: 100.0 mg/kg/injection, schedule: Q01DX009 (ip), vehicle: suspension in saline 108 % of control | endpoint: mean survival time, dose: 200.0 mg/kg/injection, schedule: Q01DX009 (ip), vehicle: suspension in saline 112 % of control

CCc1ccc(NC(=O)c2ccccc2C(=O)O)cc1
inactive: [1] 102 % of control | [4] 101 % of control | [2] 98 % of control | [5] 97 % of control | [3] 105 % of control | [6] 97 % of control

CC(C)C(C(N)=O)C(N)=O
inactive: [9] 100 % of control | [10] 100 % of control

O=C1C(O)=C(c2ccccc2C(=O)O)C(=O)C(O)=C1c1ccccc1C(=O)O
inactive: [1] 92 % of control

c1ccc(NC2=NCCO2)cc1
inactive: [4] 93 % of control | [5] 98 % of control

Cc1ccc(/C=C/C(=O)/C=C/c2ccc(C)o2)o1
inactive: endpoint: median survival time, dose: 25.0 mg/kg/injection, schedule: Q01DX005 (ip), vehicle: saline with Tween-80 98 % of control | endpoint: median survival time, dose: 50.0 mg/kg/injection, schedule: Q01DX005 (ip), vehicle: saline with Tween-80 92 % of control | endpoint: median survival time, dose: 100.0 mg/kg/injection, schedule: Q01DX005 (ip), vehicle: saline with Tween-80 100 % of control | endpoint: median survival time, dose: 200.0 mg/kg/injection, schedule: Q01DX005 (ip), vehicle: saline with Tween-80 103 % of control | endpoint: median survival time, dose: 400.0 mg/kg/injection, schedule: Q01DX005 (ip), vehicle: saline with Tween-80 98 % of control

COc1cc(C2c3cc4c(cc3C(OC3CCCCO3)C3COC(=O)C23)OCO4)cc(OC)c1OC (stereo not given)
inactive: endpoint: median survival time, dose: 1.56 mg/kg/injection, schedule: Q01DX009 (ip), vehicle: Klucel (hydroxypropylcellulose) (HPC) 109 % of control | endpoint: median survival time, dose: 3.12 mg/kg/injection, schedule: Q01DX009 (ip), vehicle: Klucel (hydroxypropylcellulose) (HPC) 120 % of control | endpoint: median survival time, dose: 3.13 mg/kg/injection, schedule: Q01DX009 (ip), vehicle: Klucel (hydroxypropylcellulose) (HPC) 114 % of control | endpoint: median survival time, dose: 6.25 mg/kg/injection, schedule: Q01DX009 (ip), vehicle: Klucel (hydroxypropylcellulose) (HPC) 120 % of control | endpoint: median survival time, dose: 12.5 mg/kg/injection, schedule: Q01DX009 (ip), vehicle: Klucel (hydroxypropylcellulose) (HPC) 101 % of control

COc1cc(OC)c(OC)cc1Br
inactive: endpoint: mean survival time, dose: 100.0 mg/kg/injection, schedule: Q01DX009 (ip), vehicle: saline sonified 101 % of control | [4] 102 % of control | endpoint: mean survival time, dose: 200.0 mg/kg/injection, schedule: Q01DX009 (ip), vehicle: saline sonified 97 % of control | [5] 102 % of control | endpoint: mean survival time, dose: 400.0 mg/kg/injection, schedule: Q01DX009 (ip), vehicle: saline sonified 97 % of control | [6] 102 % of control
